Results reported in patent US20250382344A1, “Soluble GLP1/GIP/NPY2 Receptor Triple Agonists” (Boehringer Ingelheim International GmH, priority 2024, published 2025).
Read-outs that look alike come from different tables or passages of the source.

Experiments:
hGLP1R = molecular target: T1, hGLP1R (Homo sapiens, UniProt P43220); experiment: hGLP1R CreLuc assay in 0.5% and 100% plasma (HEK-293 CRE-luciferase reporter cells); type: cell-based; conditions: HEK-293 reporter cells
T1 construct: expressed in transfected cells; host or cells: HEK-293 CRE-luciferase reporter cells
T1 sequence (P43220 24-463): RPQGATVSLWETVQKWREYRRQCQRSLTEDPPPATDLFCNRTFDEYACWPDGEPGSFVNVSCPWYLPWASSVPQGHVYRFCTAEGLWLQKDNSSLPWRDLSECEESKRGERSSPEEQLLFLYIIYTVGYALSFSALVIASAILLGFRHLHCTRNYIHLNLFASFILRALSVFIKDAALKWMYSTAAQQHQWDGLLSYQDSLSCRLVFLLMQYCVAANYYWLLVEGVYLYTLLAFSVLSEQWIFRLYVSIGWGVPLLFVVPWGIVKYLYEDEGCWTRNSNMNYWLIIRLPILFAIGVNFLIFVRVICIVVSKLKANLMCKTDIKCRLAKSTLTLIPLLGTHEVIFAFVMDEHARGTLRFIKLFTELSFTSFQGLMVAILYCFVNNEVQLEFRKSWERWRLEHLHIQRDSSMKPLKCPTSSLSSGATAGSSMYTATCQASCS

hGIPR = molecular target: T2, hGIPR (Homo sapiens, UniProt P48546); experiment: hGIPR CreLuc assay in 0.5% and 100% plasma (CHO CRE-luciferase reporter cells); type: cell-based
T2 construct: expressed in transfected cells; host or cells: CHO CRE-luciferase reporter cells
T2 sequence (P48546 22-466): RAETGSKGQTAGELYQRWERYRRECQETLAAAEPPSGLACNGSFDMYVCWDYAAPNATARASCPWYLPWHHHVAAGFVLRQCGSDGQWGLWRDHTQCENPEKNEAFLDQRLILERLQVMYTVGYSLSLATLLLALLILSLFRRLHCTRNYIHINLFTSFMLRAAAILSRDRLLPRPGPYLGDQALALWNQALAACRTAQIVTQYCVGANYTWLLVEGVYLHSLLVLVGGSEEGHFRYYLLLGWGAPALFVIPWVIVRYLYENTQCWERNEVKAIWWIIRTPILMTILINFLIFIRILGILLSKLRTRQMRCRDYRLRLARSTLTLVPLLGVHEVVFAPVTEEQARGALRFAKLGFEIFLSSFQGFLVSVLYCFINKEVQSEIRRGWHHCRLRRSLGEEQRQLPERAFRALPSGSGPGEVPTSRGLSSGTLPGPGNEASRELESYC

[1] = Solubility in 0.1 M phosphate buffer at pH 7; type: physicochemical; conditions: 0.1 M phosphate buffer at pH 7, 10 mg/mL final peptide concentration, shaking 2 hours at room temperature, peptides as TFA-salts; measured sample pH 6.5-7.0
[2] = Mouse PK after intravenous application; type: in vivo; conditions: plasma, male NMRI mice, intravenous 30-60 nmol/kg, non-compartmental analysis
In short: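 Male NMRI mice (30–40 g) dosed 30-60 nmol/kg by tail vein in 50 mM phosphate buffer pH 7.4/3.5% mannitol. Saphenous EDTA blood sampled from conscious animals up to 56 h; plasma peptide quantified by LC-MS. Parameters from non-compartmental analysis of individual profiles.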

Normal NMRI Mice = experiment: Effect on acute food intake in normal NMRI mice; type: in vivo; conditions: male NMRI mice, single subcutaneous dose 100 nmol/kg, 24 hours food intake normalized to vehicle group
Description: Male NMRI mice were obtained from Janvier (Janvier Labs, France) or from Charles River (Charles River Research Models & Services Germany GmbH) at the age of 3 weeks. The animals get a microchip (Datamars, Slim Microchip T-SL) for individual identification after delivery. They were housed with 4 mice per cage under a 12/12 dark-light cycle, light off at 3 p.m. Room temperature was controlled to 21° C.+/−1° C. and humidity 60%+/−20%. Mice had ad libitum access to regular rodent chow (KLIBA Nafag 3040 or Altromin 1324, Brogaarden, Denmark) and tap water.
Latest transfer into the HM2-System of MBRose, Denmark (real-time monitoring system of food- and water intake) of the animals 5 days before study start, to allow acclimatization to experimental conditions. As the animals were uniquely identified with the microchips, each individual animal was identified by its own microchip upon entry and exit from the food channel via antennae. Randomization of the mice for each study group (n=8; age earliest 6 weeks old) was based on food intake (middle of last three days 24 h-interval) and bodyweight directly before start of the study. A vehicle treated (50 mM phosphate buffer pH 7.4 with 3.5% mannitol) group was included in each experiment. To have the same nutrition standard for each animal the food access was locked eight hours before dark phase. One hour before night, the animals were once treated subcutaneously with the test peptide. Food intake was reported hourly for a period of 24 hours.

[3] = 0.5% human plasma, read-out: hGLP1R 0.5% hP
[4] = 100% human plasma, read-out: hGLP1R 100% hP
[5] = 0.5% human plasma, read-out: hGIPR 0.5% hP
[6] = 100% human plasma, read-out: hGIPR 100% hP

Row | SMILES | EC50 (hGLP1R; [3]) [nM] | EC50 (hGLP1R; [4]) [nM] | EC50 (hGIPR; [5]) [nM] | EC50 (hGIPR; [6]) [nM] | solubility at 2 h [1] [µg/mL] | MRT [2] [h] | Acute Food Intake 24 hours 100 nmol/kg [% CTL] (Normal NMRI Mice)
1 | CC[C@H](C)[C@H](NC(=O)[C@H](CC(C)C)NC(=O)[C@H](Cc1c[nH]cn1)NC(=O)[C@H](CCCNC(=N)N)NC(=O)[C@@H](NC(=O)[C@H](Cc1ccccc1)NC(=O)[C@H](C)NC(=O)C(C)(C)NC(=O)[C@H](CCC(N)=O)NC(=O)[C@H](C)NC(=O)[C@H](CCC(N)=O)NC(=O)[C@H](CCCCN)NC(=O)[C@H](CCC(=O)O)NC(=O)[C@H](CC(C)C)NC(=O)[C@](C)(CC(C)C)NC(=O)[C@@H](NC(=O)[C@H](CO)NC(=O)[C@H](Cc1ccc(O)cc1)NC(=O)[C@H](CC(=O)O)NC(=O)[C@H](CO)NC(=O)[C@@H](NC(=O)[C@H](Cc1ccccc1)NC(=O)[C@@H](NC(=O)CNC(=O)[C@H](CCC(=O)O)NC(=O)C(C)(C)NC(=O)[C@@H](N)Cc1ccc(O)cc1)[C@@H](C)O)[C@@H](C)O)[C@@H](C)CC)C(C)C)C(=O)N[C@@H](CC(N)=O)C(=O)N[C@@H](CCCCNC(=O)[C@@H](N)CCCCNC(=O)CC[C@H](NC(=O)CC[C@H](NC(=O)CC[C@H](NC(=O)CC[C@H](NC(=O)CC[C@H](NC(=O)CC[C@H](NC(=O)CCCCCCCCCCCCCCCCC(=O)O)C(=O)O)C(=O)O)C(=O)O)C(=O)O)C(=O)O)C(=O)O)C(=O)NC(C)(C)C(=O)N[C@H](C(=O)N[C@@H](CCCNC(=N)N)C(=O)N[C@@H](CCC(N)=O)C(=O)N[C@@H](CCCNC(=N)N)C(=O)N[C@@H](Cc1ccc(O)cc1)C(N)=O)[C@@H](C)O [Compound 119, Y-Aib-E-G-T-F-T-S-D-Y-S-I-aMeL-L-E-K-Q-A-Q-Aib-A-F-V-R-H-L-I-N-K(1,3)-Aib-T-R-Q-R-Y-NH2.C18DA-gGlu-gGlu-gGlu-gGlu-gGlu-gGlu-eLys(1,2)] | 0.1 | 0.4 | 0.1 | 0.8 | 9000 | 9.6 | 34
2 | CC[C@H](C)[C@H](NC(=O)[C@H](CC(C)C)NC(=O)[C@H](Cc1c[nH]cn1)NC(=O)[C@H](CCCNC(=N)N)NC(=O)[C@@H](NC(=O)[C@H](Cc1ccccc1)NC(=O)[C@H](C)NC(=O)C(C)(C)NC(=O)[C@H](CCC(N)=O)NC(=O)[C@H](C)NC(=O)[C@H](CCC(N)=O)NC(=O)[C@H](CCCCN)NC(=O)[C@H](CCC(=O)O)NC(=O)[C@H](CC(C)C)NC(=O)C(C)(C)NC(=O)[C@@H](NC(=O)[C@H](CO)NC(=O)[C@H](Cc1ccc(O)cc1)NC(=O)[C@H](CC(=O)O)NC(=O)[C@H](CO)NC(=O)[C@@H](NC(=O)[C@H](Cc1ccccc1)NC(=O)[C@@H](NC(=O)CNC(=O)[C@H](CCC(=O)O)NC(=O)C(C)(C)NC(=O)[C@@H](N)Cc1ccc(O)cc1)[C@@H](C)O)[C@@H](C)O)[C@@H](C)CC)C(C)C)C(=O)N[C@@H](CC(N)=O)C(=O)N[C@@H](CCCCNC(=O)CC[C@H](NC(=O)CC[C@H](NC(=O)CC[C@H](NC(=O)CC[C@H](NC(=O)CC[C@H](NC(=O)CC[C@H](NC(=O)CCCCCCCCCCCCCCCCCCC(=O)O)C(=O)O)C(=O)O)C(=O)O)C(=O)O)C(=O)O)C(=O)O)C(=O)NC(C)(C)C(=O)N[C@H](C(=O)N[C@@H](CCCNC(=N)N)C(=O)N[C@@H](CCC(N)=O)C(=O)N[C@@H](CCCNC(=N)N)C(=O)N[C@@H](Cc1ccc(O)cc1)C(N)=O)[C@@H](C)O [Compound 3, Y-Aib-E-G-T-F-T-S-D-Y-S-I-Aib-L-E-K-Q-A-Q-Aib-A-F-V-R-H-L-I-N-K(1,3)-Aib-T-R-Q-R-Y-NH2.C20DA-gGlu-gGlu-gGlu-gGlu-gGlu-gGlu(1,2)] | 3 | 13.9 | 0.7 | – | 6900 | 17.2 | 74
3 | CC[C@H](C)[C@H](NC(=O)[C@H](CC(C)C)NC(=O)[C@H](Cc1c[nH]cn1)NC(=O)[C@H](CCCNC(=N)N)NC(=O)[C@@H](NC(=O)[C@H](Cc1ccccc1)NC(=O)[C@H](C)NC(=O)C(C)(C)NC(=O)[C@H](CCC(N)=O)NC(=O)[C@H](C)NC(=O)[C@H](CCC(N)=O)NC(=O)[C@H](CCCCN)NC(=O)[C@H](CCC(=O)O)NC(=O)[C@H](CC(C)C)NC(=O)[C@](C)(CC(C)C)NC(=O)[C@@H](NC(=O)[C@H](CO)NC(=O)[C@H](Cc1ccc(O)cc1)NC(=O)[C@H](CC(=O)O)NC(=O)[C@H](CO)NC(=O)[C@@H](NC(=O)[C@H](Cc1ccccc1)NC(=O)[C@@H](NC(=O)CNC(=O)[C@H](CCC(=O)O)NC(=O)C(C)(C)NC(=O)[C@@H](N)Cc1ccc(O)cc1)[C@@H](C)O)[C@@H](C)O)[C@@H](C)CC)C(C)C)C(=O)N[C@@H](CC(N)=O)C(=O)N[C@@H](CCCCNC(=O)[C@@H](N)CCCCNC(=O)CC[C@H](NC(=O)CC[C@H](NC(=O)CC[C@H](NC(=O)CC[C@H](NC(=O)CC[C@H](NC(=O)CC[C@H](NC(=O)CC[C@H](NC(=O)CCCCCCCCCCCCCCCCCCC(=O)O)C(=O)O)C(=O)O)C(=O)O)C(=O)O)C(=O)O)C(=O)O)C(=O)O)C(=O)NC(C)(C)C(=O)N[C@H](C(=O)N[C@@H](CCCNC(=N)N)C(=O)N[C@@H](CCC(N)=O)C(=O)N[C@@H](CCCNC(=N)N)C(=O)N[C@@H](Cc1ccc(O)cc1)C(N)=O)[C@@H](C)O [Compound 78, Y-Aib-E-G-T-F-T-S-D-Y-S-I-aMeL-L-E-K-Q-A-Q-Aib-A-F-V-R-H-L-I-N-K(1,3)-Aib-T-R-Q-R-Y-NH2.C20DA-gGlu-gGlu-gGlu-gGlu-gGlu-gGlu-gGlu-eLys(1,2)] | 0.2 | – | 0.1 | – | 10300 | – | 65
4 | CC[C@H](C)[C@H](NC(=O)[C@H](Cc1ccccc1)NC(=O)[C@H](C)NC(=O)C(C)(C)NC(=O)[C@H](CCC(N)=O)NC(=O)[C@H](C)NC(=O)[C@H](CCC(N)=O)NC(=O)[C@H](CCCCN)NC(=O)[C@H](CCC(=O)O)NC(=O)[C@H](CC(C)C)NC(=O)C(C)(C)NC(=O)[C@@H](NC(=O)[C@H](CO)NC(=O)[C@H](Cc1ccc(O)cc1)NC(=O)[C@H](CC(=O)O)NC(=O)[C@H](CO)NC(=O)[C@@H](NC(=O)[C@H](Cc1ccccc1)NC(=O)[C@@H](NC(=O)CNC(=O)[C@H](CCC(=O)O)NC(=O)C(C)(C)NC(=O)[C@@H](N)Cc1ccc(O)cc1)[C@@H](C)O)[C@@H](C)O)[C@@H](C)CC)C(=O)N[C@@H](CCCNC(=N)N)C(=O)N[C@@H](Cc1c[nH]cn1)C(=O)N[C@@H](CC(C)C)C(=O)N[C@H](C(=O)N[C@@H](CC(N)=O)C(=O)N[C@@H](CCCCNC(=O)[C@@H](N)CCCCNC(=O)CC[C@H](NC(=O)CC[C@H](NC(=O)CC[C@H](NC(=O)CC[C@H](NC(=O)CC[C@H](NC(=O)CC[C@H](NC(=O)CCCCCCCCCCCCCCCCC(=O)O)C(=O)O)C(=O)O)C(=O)O)C(=O)O)C(=O)O)C(=O)O)C(=O)NC(C)(C)C(=O)N[C@H](C(=O)N[C@@H](CCCNC(=N)N)C(=O)N[C@@H](CCC(N)=O)C(=O)N[C@@H](CCCNC(=N)N)C(=O)N[C@@H](Cc1ccc(O)cc1)C(N)=O)[C@@H](C)O)[C@@H](C)CC [Compound 88, Y-Aib-E-G-T-F-T-S-D-Y-S-I-Aib-L-E-K-Q-A-Q-Aib-A-F-I-R-H-L-I-N-K(1,3)-Aib-T-R-Q-R-Y-NH2.C18DA-gGlu-gGlu-gGlu-gGlu-gGlu-gGlu-eLys(1,2)] | 0.2 | 1.8 | 0.1 | 1.7 | 10400 | – | 47
